Usually AC50 stands for the midpoint of the concentration-response curve, whichever way the signal moves.

The subject of the experiment is Clone20 osteoblast Shn3 3'UTR firefly luciferase, 24 h. The experiment can be described thus: Shn3 3'UTR reporter inhibitors, dose response, cell-based, Clone20 osteoblasts, luminescence, dry powder, set 2 (AID 743417).

Records with an inconclusive call do not appear. Activity calls are given as the source filed them.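 How the source made its calls: active means compounds lowering the luciferase signal with a fitted half-maximal dose at most twice their top valid dose (cut at about 30 µM in these data); inconclusive means flat fits with moderate signal loss, or poor fits; inactive means the rest.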 Where only a bound is given, the exact number is not on record here.

As to `CCOc1ccc(N(C)S(=O)(=O)c2cc(-c3cc(C)no3)ccc2C(C)C)cc1`, the AC50 is 4.13 µM.
As for `CC(=O)c1cccc(-c2csc3ncnc(Sc4nnnn4C)c23)c1`, the AC50 was 4.72 µM.
Take `Fc1ccc(/C=C2\CCCC3=C2Nc2ncnn2C3c2ccc(F)cc2)cc1` (stereo not given): the AC50 was 8.47 µM.
On to `CCCC(=O)OCCNc1cc(Sc2nccn2C)c2nonc2c1[N+](=O)[O-]`, for which the AC50 was 7.22 µM.
Take `COc1cc2ccnc(Cc3cccc(OC)c3OC)c2cc1OC`: the AC50 was 4.64 µM.
With `Cc1cc2nc(C)n(CCCNC(=O)Nc3cccc4ccccc34)c2cc1C`, the AC50 is 3.19 µM.
With `Cc1cc(Cl)n2c(nc3cc(F)c(F)cc32)c1C#N` the figure was 3.56 µM; with `Cc1ccccc1NC(=O)CSc1nc2ccccc2c(=O)n1C`, 7.64 µM.
As to `CC(C)C(=O)NC(c1cccc([N+](=O)[O-])c1)c1ccc2cccnc2c1O` (stereo not given), the AC50 was 2.57 µM.
As to `COc1ccc(C)c2sc(N(CCCN(C)C)C(=O)c3ccc(S(=O)(=O)N4CCc5ccccc5C4)cc3)nc12`, the AC50 is 4.4 µM.
Regarding `CC(Sc1nc2ccccc2c(=O)n1C)C(=O)NC1CCCCC1C` (stereo not given), the AC50 was 3.46 µM.
With `O=C(Nc1nc(-c2ccccn2)cs1)c1cccc(-n2cnnn2)c1` the figure was 2.58 µM; with `Cc1cc(Br)c(S(=O)(=O)NCc2ccncc2)cc1C`, 1.41 µM; with `CN1CCN(S(=O)(=O)c2ccc(N(C)Cc3ccc(C(F)(F)F)cc3)c([N+](=O)[O-])c2)CC1`, 6.3 µM.
On to `COc1ccc(-n2nnnc2-c2cnc(N3CCCC3)nc2C(F)(F)F)cc1`, for which the AC50 was 4.75 µM.
In the case of `C=C1C(=O)[C@@]23[C@H](O)C[C@@H]4C(C)(C)CC[C@H](O)[C@]4(C)[C@@H]2C[C@H](O)[C@@H]1[C@H]3O`, the AC50 is 2.95 µM.
Take `CC(=O)Nc1ccc(NC(=O)c2nc(S(=O)(=O)Cc3ccccc3)ncc2Cl)cc1`: the AC50 was 0.773 µM.
With `CCC1CSC(Nc2ccc(C(=O)/C=C/c3ccc(OC)c(OC)c3)cc2)=N1` (stereo not given), the AC50 is 4.47 µM.
With `O=C(Nc1nc(-c2ccccc2)cs1)C1CCCCN1S(=O)(=O)c1ccccc1` (stereo not given) the figure was 5.14 µM; with `CCOC(=O)c1c(NC(=O)COc2cccc3c2CCN(C)C3=O)sc2c1CCC2`, 5.44 µM; with `CS(=O)(=O)c1ncc(Cl)c(C(=O)Nc2ccc(OC(F)F)cc2)n1`, 0.682 µM.
Regarding `O=C(Cn1cnc2ccccc21)Nc1cccc(S(=O)(=O)N2CCCC2)c1`, the AC50 was 2.77 µM.
With `CCCC(=O)N1CCN(c2ccc(NC(=O)c3cc4ccccc4o3)cc2Cl)CC1` the figure was 4.1 µM; with `CC1CCN(c2ccccc2NC(=S)NC(=O)c2ccc(-c3cccc([N+](=O)[O-])c3)o2)CC1`, 3.07 µM; with `Cc1cc2c(cc(C(=O)N3CCC(C(=O)NC4CCCC4)CC3)n2Cc2c(F)cccc2Cl)o1`, 4.81 µM.
Take `O=S(=O)(c1ccccc1)N1CCN(c2cc(-c3ccccc3)nc3ncnn23)CC1`: the AC50 is 1.12 µM.
On to `Cc1ccc(Cn2ccc(NC(=O)c3nn(C)cc3[N+](=O)[O-])n2)cc1`, for which the AC50 is 4.09 µM.
With `CCOC(=O)c1oc2ccc(S(=O)(=O)n3nc(-c4ccccc4)cc3N)cc2c1C`, the AC50 was 0.854 µM.
In the case of `CCCC(=O)NC(c1ccccc1)c1ccc2cccnc2c1O` (stereo not given), the AC50 was 1.99 µM.
Consider `CC(C)Cn1c(N)c(C(=O)CSc2ccc3c(c2)OCCO3)c(=O)n(C)c1=O`, for which the AC50 is 0.674 µM.
With `Cc1nn(Cc2ccc(Cl)cc2)c(C)c1NC(=O)c1cc(C(C)C)on1` the figure was 6.2 µM.
Regarding `COc1cc(C)c(C(=O)CC(=O)c2c(C)cc(OC)cc2C)c(C)c1`, the AC50 is 7.4 µM.
For the compound `O=C1c2c(O)ccc(O)c2C(=O)c2c(NCCNCCO)ccc(NCCNCCO)c21`, the AC50 was 0.658 µM.
With `COc1ccc(-c2cc(C(F)(F)F)nc(S(C)(=O)=O)n2)cc1` the figure was 4.46 µM; with `CCN(CC)S(=O)(=O)c1cccc(NC(=O)CNc2cccc(S(=O)(=O)N3CCCC3)c2)c1`, 0.317 µM.
For `CS(=O)(=O)c1nc(-c2ccccc2)cc(C(F)(F)F)n1`, the AC50 is 1.53 µM.
With `O=C(c1ccc(Br)cc1)C(CN1CCOCC1)c1ccccc1` (stereo not given) the figure was 9.4 µM; with `CCN(CC)S(=O)(=O)c1ccc(S(=O)(=O)N2CCCC(C(=O)NC3CC3)C2)cc1` (stereo not given), 2.9 µM; with `CC(C)c1nnc(NC(=O)CCS(=O)(=O)c2nc(-c3cccs3)cc(C(F)(F)F)n2)s1`, 3.02 µM.
Take `CCCCN(C(C)=O)c1ccc2c(c1)C1CC2CCN1C(=O)OCc1ccccc1` (stereo not given): the AC50 was 1.37 µM.
As to `Cc1sc2ncnc(NC3CCN(Cc4ccccc4)CC3)c2c1C`, the AC50 is 1.02 µM.
`Cc1cc(C2=NNC(=NC3CC3)SC2)c(C)n1-c1ccccc1F`: the half-maximal activity concentration (AC50) was under 0.26 µM.
For the compound `CCOC(=O)c1cnc(-n2nc(C)cc2C)nc1NCc1ccc2c(c1)OCO2`, the AC50 is 8.74 µM.
In the case of `Cc1ccc(S(=O)(=O)Nc2cccc3ncccc23)s1`, the AC50 is 3.85 µM.
With `Cc1c(C(C)C)c(=O)n(-c2ccc(S(=O)(=O)NC3CCCCC3)cc2)n1C` the figure was 1.06 µM; with `CCN(CC)c1ccc(NC(=O)CN2C(=O)CSc3ncccc32)c(C)c1`, 1.78 µM.
For the compound `OC(c1cc(-c2ccc(C(F)(F)F)cc2)nc(C(F)(F)F)c1)C1CCCCN1` (stereo not given), the AC50 is 4.73 µM.
Take `CCCCCn1c(N2CCN(c3cccc(Cl)c3)CC2)nc2c1c(=O)[nH]c(=O)n2C`: the AC50 is 21.8 µM.
As to `Cc1ccc(Cn2ccc(=O)c(OCc3c(Cl)cccc3Cl)c2C)cc1`, the half-maximal activity concentration (AC50) is 6.11 µM.
Consider `Cc1ccc(C(=O)OCn2ncc(Cl)c(Cl)c2=O)cc1`, for which the AC50 is 5.07 µM.
With `O=C(CSc1c2c(nc3ccc(Cl)cc13)CCCC2)NCc1ccco1` the figure was 5.71 µM; with `O=C(OCCC12CC3CC(CC(C3)C1)C2)c1ccc(NCc2cc(O)ccc2O)cc1`, 1.82 µM.
With `Cc1cc(C)nc(SCC(=O)Nc2ccc(N3CCOCC3)c(Cl)c2)n1`, the half-maximal activity concentration (AC50) is 1.66 µM.
`COC(=O)C1=C(c2ccc3ccccc3c2)C[C@@H]2CC[C@H]1N2C(=O)NCC1CC1`: the AC50 was 6.86 µM.
In the case of `O=C(CSc1n[nH]c(-c2ccccn2)n1)Nc1cccc(Cl)c1`, the concentration at half-maximal activity (AC50) is 2.9 µM.
Take `CN(C)S(=O)(=O)c1cccc(N=c2scc(-c3ccc4c(c3)NC(=O)CO4)n2CC2CCCO2)c1` (stereo not given): the AC50 was 14 µM.
As to `CC(C)OC(=O)c1ccc(NCc2cc(O)ccc2O)cc1`, the AC50 was 1.9 µM.
Turning to `COc1ccc(CNCCC(c2ccc(OC(C)C)cc2)c2ccccc2OC)cc1OC` (stereo not given), the AC50 was 4.35 µM.
Take `Cc1ccc(S(=O)(=O)N2CCCCC2)cc1NC(=O)Cn1ncc(Cl)c(Cl)c1=O`: the AC50 was 4.32 µM.
With `COc1cccc(CNc2nc(NCC3CC3)nc3ccsc23)c1` the figure was 5.86 µM; with `C=CCC[C@H](Cc1ccc(F)cc1)C(=O)OC[C@H](Cc1c[nH]c2ccccc12)NC(=O)[C@@H](CC=C)CC(=O)N[C@H](CO)Cc1ccccc1`, 4.44 µM.
Turning to `CC(C)C1C(=O)N(Cc2cn(CCC3OCCO3)nn2)CCS(=O)(=O)N1Cc1ccc(-c2ccc(Cl)c(Cl)c2)cc1` (stereo not given), the AC50 was 1.28 µM.
With `Oc1ccc(-c2n[nH]c(C(F)(F)F)c2-c2ccccc2)c(O)c1` the figure was 0.283 µM; with `COc1cc(NS(=O)(=O)c2ccc(C)cc2)c2ncccc2c1`, 3.35 µM.
As to `CC(C)CCNc1nc(N)c([N+](=O)[O-])c(N2CCCCCC2)n1`, the AC50 is 8.79 µM.
For `CC(OC(=O)c1ccc(S(C)(=O)=O)c([N+](=O)[O-])c1)C(=O)NC1C2CC3CC(C2)CC1C3` (stereo not given), the AC50 was 1.4 µM.
Take `CC(=O)O[C@H]1CCC2C3CC[C@H]4[C@@H](O)[C@H](O)CC[C@]4(C)C3CC[C@@]21C` (stereo not given in full): the AC50 was > 70 µM (inactive).
For the compound `COc1ccccc1NS(=O)(=O)c1cccc(C(=O)NC2CCN(Cc3ccccc3)CC2)c1`, the concentration at half-maximal activity (AC50) was 1.95 µM.
Take `S=C(Nc1ccccc1)Nc1ccc(OCc2ccc(Cl)cc2Cl)cc1`: the AC50 is 0.405 µM.
For `CC(=O)c1c(C)[nH]c(C(=O)OCC(=O)Nc2ccc(Cl)cc2[N+](=O)[O-])c1C`, the AC50 is 0.325 µM.
In the case of `C=CCC[C@H](Cc1ccc(F)cc1)C(=O)OC[C@H](Cc1c[nH]c2ccccc12)NC(=O)[C@H](CC=C)CC(=O)N(CCO)Cc1ccccc1`, the AC50 was 11.7 µM.
With `CC(=O)OC1(C)CC(C)C(=O)C(C(O)CC2CC(=O)NC(=O)C2)C1` (stereo not given) the figure was under 0.26 µM; with `Cc1cccc(N2CCN(C(=O)CSCc3c(C)noc3C)CC2)c1C`, 2.41 µM; with `Cc1ccc(-n2nnnc2-c2cnc(-c3cccnc3)nc2C(F)(F)F)cc1`, 5.89 µM.
Consider `COc1ccc(NC(=O)C2Cc3c(-c4cccc(C(C)=O)c4)ccnc3O2)cc1OC` (stereo not given), for which the AC50 is 0.799 µM.
With `CC(=O)O[C@H]1CC[C@@]2(C)C(=CC[C@H]3[C@@H]4CC[C@H](C(C)=O)[C@@]4(C)CC[C@@H]32)C1`, the AC50 was 28.5 µM.
With `CC(=O)NC(c1ccc(Cl)cc1)c1ccc2cccnc2c1O` (stereo not given) the figure was 0.299 µM; with `CCCCn1c(CN(C)Cc2ccccc2)nc2c1c(=O)n(C)c(=O)n2C`, 2.38 µM; with `COc1ccc(C2=NS(=O)(=O)N(C)C(C(=O)N3CCc4ccccc4C3)=C2)cc1OC`, 4.99 µM.
`COc1cc(NC(=O)NCc2ccco2)ccc1-c1ccc(NC(=O)NCc2ccco2)cc1OC`: the AC50 is 3.19 µM.
As for `O=C(/C=C/c1cccc([N+](=O)[O-])c1)n1cnc2ccccc21`, the AC50 was 0.594 µM.
As to `CN(CC(=O)Nc1cccc(S(=O)(=O)N2CCOCC2)c1)CC(=O)Nc1ccc(Cl)c(C(F)(F)F)c1`, the AC50 is 2.4 µM.
Consider `Cn1nc(C(C)(C)C)cc1C(=O)N1CCCCC1c1cc(C(=O)Nc2ccc(F)c(Cl)c2)no1` (stereo not given), for which the AC50 was 3.04 µM.
`CC[C@@H](C(=O)[C@@H](C)[C@@H](O)[C@H](C)CCc1ccc(C)c(O)c1C(=O)O)[C@H]1O[C@](CC)([C@H]2CC[C@](O)(CC)[C@H](C)O2)C[C@@H]1C`: the AC50 is 7.93 µM.
Turning to `O=C1OC[C@H](Cc2ccc3c(c2)OCO3)/C1=C\c1ccc2c(c1)OCO2`, the AC50 was 2.66 µM.
Take `Cc1ccc(Cl)cc1N1CCN(C(=O)C2CCC(=O)N(C3CCCCCC3)C2)CC1` (stereo not given): the AC50 was 3.14 µM.
As to `COc1ccc(CCN2C(=O)CSC2=Nc2ccc(C(C)C)cc2)cc1OC`, the AC50 was 4.49 µM.
With `CC(C)N(CCC(=O)c1ccc2ccccc2c1)Cc1ccccc1`, the AC50 is 4.22 µM.
Turning to `Cc1ccc(-c2cn3cc(C)ccc3n2)cc1`, the AC50 was 1.32 µM.
With `COc1ccccc1-n1cc([C@@H]2C[C@H]3CN(c4ccccc4)C(=O)[C@]34CCCN24)cn1` the figure was 1.46 µM.

Values taken from PubChem BioAssay AID743417 (Broad Institute, 2014).
